Measurements published in publication PMC5117898 (International Journal of Nanomedicine, 2016).

Tests used:
HEI-OC1 cells = assay: Cellular uptake test of CPPs; assay type: cell-based, mouse; details: rhodamine-labeled peptides 0.025 mg/mL, flow cytometry
[1] = Dex loading and release study in simulated perilymph; assay type: physicochemical; details: dialysis loading, PCA 30 mg and Dex 6 mg in DMSO

Substance	fluorescence intensity fold higher compared with Penetratin (HEI-OC1 cells) [fold]	fluorescence intensity fold higher compared with Tat (HEI-OC1 cells) [fold]	percentage of Dex loading [1]
RRRRRRRR [Arg8]	18.8±3.2	16.1±1.3	
PHEA-g-C18-Arg8 [PCA nanoparticles]			16.8%±3.2
